Experimental data as given in patent publication US10285944B2 (ALFASIGMA S.P.A., priority 2005, dated 2019).

Columns and labels:
[1] = depending on the dose and the treatment duration; cited from earlier work
[2] = system: patients affected by Crohn's disease; assay: Clinical multi-center randomised trial versus placebo in Crohn's disease; format: in vivo, human; conditions: 27 patients
Source text: 55 Crohn's disease patients in acute, mild to moderate grade, phase, having CDAI (Crohn Disease Active Index) value between 200 and 300, have been recruited. The primary end point was represented by the percentage of the patients in clinic remission defined as CDAI lower than 150 points at the end of the study. The patients, randomised in two groups: group A, of 27 patients and group B of 28 patients, have been treated for 12 weeks according to the following therapeutic schemes:
Group B: placebo, administrated 2 times in a day in a such quantity to correspond to the content of the dose of the active principle.

[3] = system: Crohn's patients characterized by a protein C reactive value higher than normal; assay: Crohn's patients with protein C reactive value higher than normal (subgroup of the trial); format: in vivo, human; conditions: subgroup with protein C value higher than normal values; 16 patients treated with rifaximin
[4] = CDAI lower than 150 after 12 weeks, rifaximin 800 mg 2 times a day (preparation of example 3)

| Structure (SMILES) | incidence of side effects [1] | therapeutic failure, percentage of the patients ([2]; 12 weeks, rifaximin 800 mg 2 times a day) | Number of clinical remission [2, 4] | clinical remission, percentage of the patients [2, 4] | Number of clinical remission [3] | clinical remission, percentage of the patients [3] | therapeutic failure, percentage of the patients [3] |
| --- | --- | --- | --- | --- | --- | --- | --- |
| Cc1ncc([N+](=O)[O-])n1CCO [metronidazole] | 10-20% | – | – | – | – | – | – |
| CO[C@H]1/C=C/O[C@@]2(C)Oc3c(C)c(O)c4c(O)c(c5c(nc6cc(C)ccn65)c4c3C2=O)NC(=O)/C(C)=C\C=C\[C@H](C)[C@H](O)[C@@H](C)[C@@H](O)[C@@H](C)[C@H](OC(C)=O)[C@@H]1C [rifaximin] | – | (3.4%) | 14 | (51.9%) | 10 | (62.5%) | (0%) |
